One compound from publication PMC7961996, “Small Immunomodulatory Molecules as Potential Therapeutics in Experimental Murine Models of Acute Lung Injury (ALI)/Acute Respiratory Distress Syndrome (ARDS)” (International Journal of Molecular Sciences, 2021) can be followed below.

SMILES strings stand for the structures.

One series relates to LPS-induced ALI mice. As to the kind of experiment: LPS-induced ALI murine model. Format: in vivo, C57BL6/J mice. As for the experimental part:
For the mouse efficacy studies, both AVR-25 and AVR-48 were reconstituted in 0.9% sterile normal saline to give a final concentration of 10 mg/kg; 125 µL was administered intraperitoneally (IP) for hyperoxia- and LPS- induced lung injury, and IV via the lateral tail vein for CLP-induced lung injury. Imipenem (Primaxin®) was formulated in sterile 0.9% saline solution and administered subcutaneously (SC) at a dose of 5 mg/kg to mice in a 0.2 mL volume near the dorsal scapular region for CLP-induced lung injury study. LPS was dissolved in sterile 0.9% saline solution and 100 µL was administered intratracheally for the ALI study.
Three models of ALI were used in the current study: hyperoxia-, LPS-, and CLP-induced lung injury: LPS-induced ALI was induced by administering a one-time intratracheal instillation of LPS (100 µg in a volume of 100 µL). Animals were sacrificed after 24 h following LPS administration while two doses of AVR-25 and AVR-48 were administered (10 mg/kg, IP) at 4 h and 12 h following LPS dosing. Hyperoxia-induced ALI was initiated by keeping the mice in cages in airtight polypropylene chamber exposed to hyperoxia (100% oxygen) for 48 h, following a standard protocol. Two doses of AVR-25 and AVR-48 were administered (10 mg/kg, IP) at 4 h and 12 h following hyperoxia exposure, and mice were sacrificed after 48 h.
At the end of the experimental time points for all the above groups, the mice were euthanized with an overdose of a cocktail of xylazine (100 mg/kg)/ketamine (10 mg/kg, IP) and BALF and lung tissues were harvested for further analysis. Male mice were used for all the ALI experiments.
BALF was obtained from the anesthetized mice by cannulating the upper part of the trachea with a blunt 22-gauge needle and then by lavaging three times with 1.0 mL of cold PBS (pH 7.4). The fluid recovery rate was about 90%. Lavaged samples were kept on ice, and the BALF was centrifuged at 4 °C. Total cell counts in BALF were determined using the TC20 automated cell counter (Bio-Rad Laboratories, Inc., Hercules, CA, USA). The differential cell counts were performed on cytospin preparations after staining with the Hema 3 differential Staining kit (Fisher Scientific, Kalamazoo, MI, USA). Total protein concentration in the BALF was measured using the Pierce^TM BCA assay kit (Fisher Scientific Co, Houston, TX, USA), as previously described.
Lung endothelium permeability was determined by measuring the accumulation of Evans blue in the lungs, as previously described. In brief, Evans blue dye (EBD) solution (Sigma-Aldrich, Inc., St. Louis, MO, USA, 5 mg/mL) was injected into the tail vein at a concentration of 50 mg/kg before 30 min of the experimental time point. At the experimental time points, lungs were excised and weighed. EBD was extracted in 2 mL formamide kept in a water bath at 60 °C for 3 h, and the samples were centrifuged at 500 g for 10 min. The absorption of light at 595 nm was measured spectrophotometrically (Microplate reader, Bio-Rad Laboratories, Hercules, CA, USA) with the supernatants.
Interleukin (IL)-6, IL-1β, and IL-10 were quantified on BALF while E-selectin was quantified in lung homogenate using commercially available DuoSet® ELISA kits (R&D Systems, Minneapolis, MN, USA) according to the manufacturer’s instructions, as previously described. Briefly, Nalgene Nunc Maxisorp™ plates were coated overnight with antibodies to IL-6 (2 µg/mL), IL-1β (2 µg/mL) IL-10 (2 µg/mL), or E-selectin (2 µg/mL) and the following morning plates were washed and blocked for 2 h. Samples were added to the wells at various dilutions and then incubated with detection antibody for 2 h. Plates were subsequently washed, and streptavidin-HRP conjugate antibody was added to each well for 20 min. […]

Series [1] is described as follows: Toxicology study of AVR-48, IV dose escalation and repeat dose phases. In kind it is in vivo, Sprague Dawley rats. On the procedure: For the PK study of AVR-48 in rats, a formulation consisting of 10% DMSO, 20% tetraglycol, 20% PEG 400, and 50% sterile water was developed. Each preparation was made on the same day of dose administration. The components of the control/vehicle item formulation were added sequentially. Briefly, the appropriate volume of DMSO (10% of the final volume) was measured into a container followed by gradual addition of PEG 400 (20% of the final volume) and sterile water (50% of the final volume) to make up the volume and mixed thoroughly till completely dissolved. The final solution was filtered through a 0.22 µm membrane filter (Millipore Millex® GP PES, St. Louis, MO, USA) into a sterile vial.
The toxicology study of AVR-48 was performed with both 8–10 week old male and female Sprague Dawley rats, in two phases following standard FDA guidance [M3(R2)R]. AVR-48 was injected IV at a volume of 5 mL/kg of body weight after reconstituting in 10% DMSO, 20% tetraglycol, and 20% PEG 400 in sterile water. In the dose escalation phase, 75 to 100 mg/kg per day was administered as two separate doses approximately 6–7 h apart by IV slow bolus injection at a volume of 5 mL/kg of body weight. Three animals of each sex were dosed at each dose level. During the repeat dose phase, daily doses of 0, 40, and 80 mg/kg/day were administered as two divided doses delivered by slow bolus injection at a volume of 5 mL/kg of body weight approximately 6–7 h apart. Study animals (n = 5/sex/dose) were treated for three days with a total of six doses for AVR-48. Twelve to eighteen hours after the last dose was administered, animals were euthanized and blood collected for analysis of clinical chemistry and other hematological parameters. Detailed necropsy examinations were performed on each animal, and tissues were collected and fixed with standard fixatives for histological analysis and interpretation.

Setting [2] is: 10 mg/kg IP at 4 h and 12 h after LPS, 24 h, vs untreated ALI mice.

The term NOAEL denotes the highest dose or exposure tested at which no adverse effect was seen. Consider `CC(=O)N[C@H]1[C@H](Oc2ccc([N+](=O)[O-])cc2)O[C@H](CO)[C@@H](O)[C@@H]1O` [AVR-48, N-((2S,3R,4R,5S,6R)-4,5-dihydroxy-6-(hydroxymethyl)-2-(4-nitrophenoxy)tetrahydro-2H-pyran-3-yl) acetamide], for which the “pro-inflammatory cytokines IL-1β and IL-6 levels in BALF and lung tissues” value in the series on LPS-induced ALI mice (10 mg/kg IP at 4 h and 12 h after LPS, 24 h, ELISA, Western blot) was “decreased”. In the series on LPS-induced ALI mice (setting [2]), the “neutrophil cell counts in BALF” value is on record as “decreased counts” and the “total inflammatory cell counts in BALF” value is “decreased counts”. Also, in the series with LPS-induced ALI mice (10 mg/kg IP x2), the “Evans Blue dye leak concentration in the lungs” value is “diminished levels”; the “expression of lung adhesion molecules ICAM-1, VCAM-1, and E-selectin in whole lung tissue” value was “decreased expression”; the “total proteins in BALF (pulmonary edema)” value is “diminished levels”. Moreover, the “lung injury score (H&E)” value in the series on LPS-induced ALI mice (10 mg/kg IP x2, 0-4 scoring, vs ALI mice without treatment) is “decreased lung injury scores”. In addition, in the series with LPS-induced ALI mice (10 mg/kg IP x2, ELISA, vs non-treated ALI mice), the “IL-10 levels in BALF” value was “further increase”. In the series on LPS-induced ALI mice (10 mg/kg IP x2, Western blot), the “expression of cleaved caspase-3 in lungs (lung cell death)” value is recorded as “reduced expression”; the “expression of endothelial AJ proteins VE-cadherin and β-catenin in whole lungs” value is on record as “increased expression”. In addition, the “tolerability, repeat administration” value in series [1] (40 and 80 mg/kg/day as two daily doses of 20 and 40 mg/kg for three consecutive days, IV) is “well tolerated with no adverse clinical signs”. Besides, the “hematology and clinical chemistry parameters” value in series [1] (IV for three consecutive days, up to 80 mg/kg/day) is given as “no changes in any of the hematology or clinical chemistry parameters”. This compound yielded an MTD at 3 days in series [1] (both sexes, Sprague Dawley, rat, in vivo, IV, two daily doses for three consecutive days, male and female rats) of 80 mg/kg/day. Besides, in series [1] (both sexes, Sprague Dawley, rat, in vivo, IV, two daily doses for three consecutive days, male and female rats, read-out: no observable adverse effect level (NOAEL)), the no observed adverse effect level (NOAEL) at 3 days worked out at 80 mg/kg/day. Also, the adverse signs entry in series [1] (dose escalation, 75 mg/kg/day IV) was “No adverse signs were observed”. In addition, the mortality result in series [1] (dose escalation, 100 mg/kg total daily dose IV) is on record as “A single animal that received a total daily dose of 100 mg/kg died”. For the same compound, the clinical signs result in series [1] (dose escalation, 100 mg/kg total daily dose, two IV bolus 6-7 h apart) was “clinical signs of hypoactivity, respiratory changes, changes in posture, and loss of motor coordination were observed”. The “therapeutic window over the efficacious dose” value in series [1] (rat MTD/NOAEL vs 10 mg/kg efficacious dose in mouse) was approximately 8 fold. Also, the “systemic gross observations at necropsy” value in series [1] (repeat dose IV) is recorded as “no evidence of any AVR-48 related systemic gross observations at necropsy”.
